According to patent US20090204336A1, “PDZ-Domain Modulators” (Forschungsverbund Berlin e. V., priority 2005, published 2009):
Entries after “also recorded” stand apart in the source; their conditions may differ.

Tests used:
[1] = biological target: T1, PDZ-domain of the protein AF6 (Homo sapiens, UniProt P55196); experiment: 15N-HSQC NMR binding assay (chemical shift comparison with and without test ligand); settings: for binding to the PDZ-domain of the protein AF6 (binding / non-binding): 8 to 10-fold molar excess of test ligand, 50 μM protein; for binding site occupation from backbone amide chemical shifts, compared with compound 1: 8 to 10-fold ligand excess, FIG. 8; for binding of compound with singly bound R3 compared with the doubly bound equivalent: singly vs doubly bound residue R3
T1 construct: The ubiquitarily 15N marked PDZ-domains of the proteins AF6; made in house
T1 sequence (P55196 1007-1093 limits assumed): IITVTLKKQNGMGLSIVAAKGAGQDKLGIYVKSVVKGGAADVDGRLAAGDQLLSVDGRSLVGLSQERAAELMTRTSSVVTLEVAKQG
Description: The chemical shifts are split up into the 2 categories “large (bold italics)” and “small (normal letters)”. From the shown amino acid residues, the binding site of a compound on the protein can be determined by color-highlighting the backbone amide atoms of this amino acid residues in the 3D protein structure of Table 1 and creating the largest common cut set of all these atoms on the protein surface.

[2] = biological target: T2, PDZ-domain of AF6 (Homo sapiens, UniProt P55196); experiment: Kd determination by 15N-HSQC NMR titration; format: binding; settings: macroscopic (apparent) Kd ± statistical standard deviation of curve adaptation; 50 μM 15N protein, pH 6.5, 300 K
T2 construct: The ubiquitarily 15N marked PDZ-domains of the proteins AF6; made in house
T2 sequence (P55196 1007-1093 limits assumed): T1 sequence (P55196 1007-1093 limits assumed)
Description: (§1) The ubiquitarily 15N marked PDZ-domains of the proteins AF6 [Boisguerin, P. et al., Chem. Biol. 11:449-459 (2004)] and Syntrophin [Schultz, J. et al., Nat Struct Biol., 5(1):19-24 (1998)] were prepared as described in the publications. For the NMR assay 50 μM 15N marked protein are mixed in a buffer of 20 mM Na phosphate pH 6.5, 50 mM NaCl and 10% d6-DMSO with a 8 to 10-fold molar excess of test ligand and a 15N-HSQC NMR spectrum is recorded at a temperature of 300 K on a Bruker DRX 600 MHz NMR spectrometer. Secondly, an identical comparison spectrum of protein in absence of test ligand is recorded. The NMR spectra are processed with the aid of the software XWIN-NMR and compared with each other with the aid of the software Sparky. […] Exemplarily is shown such a comparison of spectra for the PDZ-domain of AF6 in FIG. 7A and for the PDZ-domain of Syntrophin in FIG. 7B.
(§2) For the determination of equilibrium dissociation constants (in short: Kd values), a test ligand is added step-wise in increasing concentrations to 50 μM protein solution, and for each concentration step a 15N-HSQC NMR spectrum is recorded under the same conditions as described above. The average chemical shift of a resonance, d, is calculated according to the following equation from the NMR raw data: […]
(§3) wherein ΔH is the shift in ppm units along the 1H resonance axis, and ΔN is the shift in ppm units along the 15N resonance axis. The average shift, d, is drawn as a function of the concentration of the test ligand, and a binding curve results, to which is adapted the following mathematical equation:
(§4) wherein Lo is the total concentration of ligands, Po is the total concentration of protein and Kd is the Kd value. This equation describes the law of mass action of a reaction “protein+ligand=complex”.
(§5) With the aid of a software such as e.g. “Origin 5.0”, the adaptation is optimized in a non-linear manner, thereby providing for each investigated resonance a microscopic Kd value. From the mean value of all relevant microscopic Kd values, a macroscopic Kd value is calculated. In Table 2, the macroscopic Kd values including the statistical standard deviation for the binding of some test ligands to the PDZ-domains of AF6 and of Syntrophin are shown.
(§6) The number behind the ± symbol indicates the statistical standard deviation of a mathematical curve adaptation to the chemical binding equation “protein+ligand=complex”.

[3] = biological target: T3, PDZ-domain of Syntrophin (Mus musculus, UniProt Q61234); experiment: Kd determination by 15N-HSQC NMR titration; format: binding; settings: macroscopic (apparent) Kd ± statistical standard deviation of curve adaptation; 50 μM 15N protein, pH 6.5, 300 K
T3 construct: made in house
T3 sequence (Q61234 81-164 limits assumed): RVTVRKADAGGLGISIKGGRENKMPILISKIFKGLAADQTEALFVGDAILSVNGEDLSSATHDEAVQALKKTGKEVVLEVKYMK
Description: as §1, §2, §3, §4, §5, §6

| binding to the PDZ-domain of the protein AF6 (binding / non-binding) [1] | Compound | other results |
| --- | --- | --- |
| – | O=C(O)c1cccc([N+](=O)[O-])c1O [Compound 46] | binding site occupation from backbone amide chemical shifts, compared with compound 1 [1]: does not or only insufficiently occupy the binding sites L25 to V28 and S75 to T91 |
| non-binding | CN1C(=O)C(=Cc2cccc(C(F)(F)F)c2)SC1=S [Compound 32] | – |
| – | O=C(O)c1cc2cc(Br)ccc2c(Br)c1O [Compound 41] | Kd [2]: 419 ± 30 µM |
| binding | O=C1NC(=S)SC1=Cc1ccsc1 [Compound 13] | – |
| show a binding | CC(C)C=C1SC(=O)NC1=O [Compound 21] | binding site occupation from backbone amide chemical shifts, compared with compound 1 [1]: missing occupation of the partial binding site of the trifluoromethylphenyl residue |
| – | O=C1NC(=S)SC1Cc1cccc(C(F)(F)F)c1 (centres unmarked) [Compound 26] | binding of compound with singly bound R3 compared with the doubly bound equivalent [1]: weaker binding |
| non-binding | NC1=NC(=O)C(=Cc2ccsc2)S1 [Compound 38] | – |
| particularly strong activity | CC(c1ccc(C(F)(F)F)cc1)C1SC(=S)NC1=O (centres unmarked) [Compound 6] | – |
| particularly strong activity | O=C1NC(=S)SC1Cc1ccc(Br)cc1 (centres unmarked) [Compound 2] | – |
| non-binding | CN1C(=O)C(=Cc2ccc(C(F)(F)F)cc2)SC1=S [Compound 31] | – |
| – | O=c1[nH]c2c(Cl)c(Cl)c(Cl)cc2o1 [II] | Kd [3]: 398 ± 32 µM; Kd [2]: 480 ± 33 µM |
| show a binding | O=C1NC(=S)SC1Cc1ccsc1 (centres unmarked) [Compound 5] | – |
| particularly strong activity | O=C1NC(=O)C(Cc2ccc(C(F)(F)F)cc2)S1 (centres unmarked) [Compound 7] | Kd [3]: 330 ± 17 µM; Kd [2]: 280 ± 22 µM |
| binding | O=C1NC(=S)SC1=Cc1cccc(C(F)(F)F)c1 [Compound 14] | – |
| show a binding | O=C1NC(=S)SC1Cc1ccoc1 (centres unmarked) [Compound 4] | – |

| Compound | binding to the PDZ-domain of the protein AF6 (binding / non-binding) [1] | other results |
| --- | --- | --- |
| O=C1NC(=NCCCc2ccccc2)SC1=Cc1ccc(C(F)(F)F)cc1 [Compound 40] | non-binding | – |
| CN(C)CCN=C1NC(=O)C(=Cc2ccc(C(F)(F)F)cc2)S1 [Compound 39] | non-binding | – |
| O=C1NC(=S)SC1=Cc1c[nH]c2ccccc12 [Compound 29] | non-binding; also recorded: do not show any binding | – |
| O=C1NC(=S)SC1Cc1ccccc1 (centres unmarked) [Compound 3] | show a binding | – |
| O=C1NC(=S)SC1Cc1ccc(C(F)(F)F)cc1 (centres unmarked) [Compound 1] | show a binding; also recorded: particularly strong activity | Kd [3]: 239 ± 12 µM; Kd [2]: 101 µM; binding of compound with singly bound R3 compared with the doubly bound equivalent [1]: stronger binding |
| O=C1NC(=S)SC1=Cc1ccc(C(F)(F)F)cc1 [Compound 9] | binding; also recorded: particularly strong activity | – |
| O=C1NC(=S)SC1=Cc1ccc(-c2ccccc2)cc1 [Compound 30] | non-binding; also recorded: do not show any binding | – |
